Source: publication PMC4684281, “Antitumor Effects and Mechanism of Novel Emodin Rhamnoside Derivatives against Human Cancer Cells In Vitro” (PLoS ONE, 2015)
“And” between values parts separate entries of the source, which are not always exact repeats. Identical values can stand only once. Like-named read-outs stand apart in the source and are kept apart here.

Legend:
SGC-7901 cells = assay: MTT cell viability assay, SGC-7901; assay type: cell-based; conditions: Homo sapiens
Description: (§1) The viability of cancer cells was evaluated by MTT assay. Briefly, cells were inoculated in 96-well culture plates at the density of 1×10^4/well with complete medium containing 10% fetal calf serum in a final volume of 0.2 mL. Cells were incubated at 37°C for at least 24 hours to allow optimal attachment. When the cells reached 60% confluence, they were treated with Cisplatin, HCPT and emodin rhamnopyranosides derivatives in various concentrations, and incubated in a humidity-controlled 5%CO2 incubator at 37°C for 72 hours. Medium were exchanged once every 24 hours. Cell control group and blank group were set up in the same manner, with each group having six parallel wells. Cell survival was assessed by directly adding 22 μL of 5mg/mL MTT to 0.2 mL medium. After three hours, the formazan precipitate was dissolved in 200μL isopropanol per well, and completely mixed under room temperature. Afterwards, the optical density of each well was detected at 570 nm wavelength by iMark microplate reader (Bio-rad,USA). This experiment was repeated at least three times.

A549 cells = assay: MTT cell viability assay, A549; assay type: cell-based, Human; conditions: for IC50: A549
Description: as §1

HepG2 cells = assay: Cell cycle analysis (PI staining); assay type: cell-based, Human; conditions: 48h; for Percentage of cell cycle distribution, G2/M: control 9.68±3.46%; for Percentage of cell cycle distribution, G0/G1: control 67.48±3.94%
Description: HepG2 cells in logarithmic growth phase were inoculated in 10cm culture plates at density of 5×10^5 cells and incubated overnight and allowed to attach. After being exposed to EM-d-Rha at specific concentrations for 48h, cells were harvested and washed with cold PBS twice. Then the collected cells were fixed with 1mL PBS and 3mL cold 100% ethanol at 4°C overnight. After that, the cells were again harvested by centrifugation at 300×g for 10 min. The cells were washed with cold PBS and re-suspended in 450 μL PBS, and then treated with 50μL ribonuclease (RNase,10mg/mL) at 37°C for 15min. 500μL of propidium iodide (PI, 50μg/ml) was added to the samples. After the cells were incubated for 30 min at 4°C in the dark, the cell cycle distribution was measured using an BD FACSCalibur Flow cytometer (BD Biosciences, USA), and 10,000cells were counted for each sample. The percentage of cells in different phases of the cell cycle was analyzed by flow Jo (BD Biosciences, USA). The experiment was repeated three times.

CC(=O)O[C@@H]1[C@@H](O[C@@H]2O[C@@H](C)[C@H](O)[C@@H](OC(C)=O)[C@H]2OC(C)=O)[C@H](C)O[C@@H](Oc2cc(O)c3c(c2)C(=O)c2cc(C)cc(O)c2C3=O)[C@@H]1OC(C)=O [S-8, 3-(2”,3”-Di-O-acetyl-α-L-rhamnopyranosyl-(1→4)-2’,3’-di-O-acetyl-α-L-rhamnopyranosyl)-emodin]
IC50 (SGC-7901 cells; MTT at 72h, n=3, mean±S.E.M, read-out: IC50 for EM-d-Rha, SGC-7901): 1990 ± 120 nM | inhibition at 0.1 µM (SGC-7901 cells; SCG-7901, 0.1μM, MTT 72h, read-out: The inhibition rate of EM-d-Rha): 20.1 ± 0.18% | inhibition at 0.5 µM (SGC-7901 cells; SCG-7901, 0.5μM, MTT 72h, read-out: The inhibition rate of EM-d-Rha): 40.99 ± 0.02% | inhibition at 2.5 µM (SGC-7901 cells; SCG-7901, 2.5μM, MTT 72h, read-out: The inhibition rate of EM-d-Rha): 42.63 ± 0.02% | inhibition at 12.5 µM (SGC-7901 cells; SCG-7901, 12.5μM, MTT 72h, read-out: The inhibition rate of EM-d-Rha): 95.01 ± 0.01% | inhibition at 62.5 µM (SGC-7901 cells; SCG-7901, 62.5μM, MTT 72h, read-out: The inhibition rate of EM-d-Rha): 94.33 ± 0.05% | IC50 (A549 cells; Homo sapiens, MTT at 72h, n=3, mean±S.E.M, read-out: IC50 for EM-d-Rha, A549): 1750 ± 630 nM | IC50 (A549 cells; Homo sapiens, MTT, 72 hours, read-out: IC50 values, A549): 2.6 µg/mL | inhibition at 0.1 µM (A549 cells; Homo sapiens, A549, 0.1μM, MTT 72h, read-out: The inhibition rate of EM-d-Rha): 13.95 ± 0.02% | inhibition at 0.5 µM (A549 cells; Homo sapiens, A549, 0.5μM, MTT 72h, read-out: The inhibition rate of EM-d-Rha): 27.3 ± 2.19% | inhibition at 2.5 µM (A549 cells; Homo sapiens, A549, 2.5μM, MTT 72h, read-out: The inhibition rate of EM-d-Rha): 33.7 ± 1.46% | inhibition at 12.5 µM (A549 cells; Homo sapiens, A549, 12.5μM, MTT 72h, read-out: The inhibition rate of EM-d-Rha): 63.5 ± 1.03% | inhibition at 62.5 µM (A549 cells; Homo sapiens, A549, 62.5μM, MTT 72h, read-out: The inhibition rate of EM-d-Rha): 75.96 ± 0.58% | Decrease of IC50 compared to the IC50 of emodin, A549 (A549 cells; from Table 1): 7.52 fold | Percentage of cell cycle distribution, G2/M (HepG2 cells; HepG2, 2.5μM): 7.01±1.73% | Percentage of cell cycle distribution, S (HepG2 cells; HepG2, 2.5μM, control 23.19±2.18%, listed as EM-d-Rha): 28.59% and 28.59±3.75% | Percentage of cell cycle distribution, G0/G1 (HepG2 cells; HepG2, 2.5μM): 61.37±2.16% | Percentage of cell cycle distribution, G2/M (HepG2 cells; HepG2, 5.0μM): 10.31±3.08% | Percentage of cell cycle distribution, G0/G1 (HepG2 cells; HepG2, 5.0μM): 51.03±8.84% | Percentage of cell cycle distribution, G2/M (HepG2 cells; HepG2, 10.0μM): 7.96±2.07% | Percentage of cell cycle distribution, G0/G1 (HepG2 cells; HepG2, 10.0μM): 52.35±9.37%
